Measured values from PubChem BioAssay (NCI).
Where “and” joins values, the source holds several entries; their conditions need not be identical. Equal values may be shown once.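 48-hour exposure; five concentrations; linearly interpolated endpoints. At the GI50, growth is halved. The concentration for full growth arrest is given as TGI.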

What follows are compounds tested on MDA-MB-468 breast (assay: NCI tumour cell line growth inhibition, 48 h).

For `CO/N=C/C=C\C(=O)N/C=C/C[C@H]1/C=C/[C@H](O)/C=C\C=C\c2cccc(O)c2C(=O)O1`, which GI50 is on record?
The GI50 was 0.286 µM and 0.187 µM.

What about the TGI of the same compound?
The TGI was 29.9 µM and 17.5 µM.

How did the GI50 turn out when `N#CCCN1C/C(=C/c2ccccc2)C(=O)/C(=C/c2ccccc2)C1` was run?
Its GI50 is 1.68 µM.

What about the TGI of the same compound?
The TGI was 3.78 µM.

Which results are given for `NCCOc1ncccc1/C=C1\C2C=CC=CC2C2C=CC(F)=CC12` (stereo unspecified)?
GI50: 0.483 µM; TGI: 2.01 µM

Which results are given for `CCCOc1cc2c(cc1O)CC[C@@H]1[C@@H]2CC[C@]2(C)[C@@H](O)CC[C@@H]12`?
GI50: 2.8 µM; TGI: 16.7 µM

With `O=c1c2c3c(sc2n2c(CCl)nnc2n1Cc1ccccc1)CCCC3` as the compound, how does the GI50 read?
Its GI50 is 1.77 µM.

And the TGI?
The TGI was 3.72 µM.

Which GI50 does the source give for `c1cc2ccc3cc2cc1CNCCN1CCNCc2ccc4ccc(cc4c2)CNCCN(CCNC3)CCNCc2ccc3ccc(cc3c2)CNCC1` here?
Its GI50 is 2.01 µM.

And the TGI?
The TGI was 4 µM.

`COC(=O)c1ccc([C@H]2c3[nH]c4ccccc4c3C[C@H](C(=O)OC)N2C(=O)CCl)cc1` was tested. Which GI50 did it give?
The GI50 was 0.472 µM.

What about the TGI of the same compound?
Its TGI is 1.9 µM.

Which GI50 does the source give for `C=CCCCC(=O)CCC(=O)OCC1O[C@@H](O[C@@H]2C(O)[C@@H](OC(C)=O)C(C)O[C@H]2O[C@H](CC=C)CCCCC)C(O)[C@@H](OC(=O)/C(C)=C/C)[C@@H]1OC(=O)/C=C/c1ccccc1` (stereo partly specified) here?
Its GI50 is 0.0321 µM.

And the TGI?
The TGI was 1.22 µM.

Which results are given for `CCC(=O)Oc1cc(/C=C/C(=O)O[C@H]2C[C@H]3CN4CCc5c([nH]c6cc(OC)ccc56)[C@@H]4C[C@@H]3[C@@H](C(=O)OC)[C@@H]2OC)ccc1OC`?
GI50: 4.76 µM; TGI: 33.3 µM

How did the GI50 turn out when `O=c1c2sc3ccccc3c2nnn1-c1ccc(F)c(Cl)c1` was run?
Its GI50 is 12.8 µM.

What about the TGI of the same compound?
Its TGI is 99.5 µM.

With `COc1cc(C(=O)/C=C/c2cc(-c3cc(OC)c(OC)c(OC)c3)n[nH]2)cc(OC)c1OC` as the compound, how does the GI50 read?
The GI50 was 1.15 µM.

And the TGI?
The TGI was 2.48 µM.

How did the GI50 turn out when `COc1ccc(C(=O)/C=C/c2ccc(OCc3ccc(Cl)cc3)cc2)cc1OC` was run?
The GI50 was 40.6 µM.

And the TGI?
Its TGI is 271 µM.

How did the GI50 turn out when `COc1ccc2oc(=O)cc(C3c4ccc([nH]4)C(c4cc(=O)oc5ccc(OC)cc45)c4ccc([nH]4)C(c4cc(=O)oc5ccc(OC)cc45)c4ccc([nH]4)C(c4cc(=O)oc5ccc(OC)cc45)c4ccc3[nH]4)c2c1` (stereo unspecified) was run?
Its GI50 is 0.401 µM.

And the TGI?
Its TGI is 1.91 µM.

What does the source list for `Cn1cc(-c2ccc(-c3cn(C)c4ncccc34)[nH]2)c2cccnc21`?
GI50: 1.79 µM; TGI: 5.22 µM

How did the GI50 turn out when `COc1ccc(C(=O)C2C(C#N)C(C#N)C3C=Cc4ccccc4N32)cc1` (stereo unspecified) was run?
The GI50 was 2.31 µM.

And the TGI?
The TGI was > 100 µM.

With `COc1ccc(NC(=O)c2sc3nc(C)c(C(=O)/C=C/c4ccccc4)cc3c2N)cc1` as the compound, how does the GI50 read?
Its GI50 is 0.92 µM.

And the TGI?
The TGI was 2.03 µM.

How did the GI50 turn out when `NC(=O)[C@@H](CCC(F)(F)F)N(Cc1ccc(-c2ncon2)cc1F)S(=O)(=O)c1ccc(Cl)cc1` was run?
Its GI50 is 7.26 µM.

And the TGI?
The TGI was > 100 µM.

How did the GI50 turn out when `Cc1ccc(S(=O)(=O)Oc2ccccc2-c2ccccc2)cc1` was run?
Its GI50 is 0.866 µM.

What about the TGI of the same compound?
Its TGI is 4.22 µM.

`Cc1ccc2nc3ccccc3c(NCc3ccccc3)c2c1` was tested. Which GI50 did it give?
Its GI50 is 1.52 µM.

What about the TGI of the same compound?
The TGI was 5.54 µM.

What does the source list for `O=c1cc(N2CCOCC2)oc2c(-c3ccc4c(c3)OCCO4)csc12`?
GI50: 0.629 µM; TGI: 3.75 µM

With `O=C1N=C(c2c(-c3[nH]c(=O)c4ccc(Br)cc4c3O)c(O)c3ccccc3c2O)C(=O)c2cc(Br)ccc21` as the compound, how does the GI50 read?
The GI50 was 0.412 µM.

What about the TGI of the same compound?
The TGI was 1.49 µM.

How did the GI50 turn out when `CCCCCCC/C(=N\N=C(N)N)c1ccc(O)cc1` was run?
Its GI50 is 1.3 µM.

What about the TGI of the same compound?
The TGI was 2.6 µM.

With `COc1ccc2[nH]c(C(=O)N3CCN(C(=O)OCc4ccc5c(Br)cc(Br)c(O)c5n4)CC3)cc2c1` as the compound, how does the GI50 read?
Its GI50 is 0.209 µM.

What about the TGI of the same compound?
The TGI was 0.506 µM.

`COc1ccc2nc(NC(=O)COc3cc(/C=C\c4cc(OC)c(OC)c(OC)c4)ccc3OC)sc2c1` was tested. Which GI50 did it give?
The GI50 was 2.29 µM.

What about the TGI of the same compound?
Its TGI is 8.37 µM.

For `CS(C)(=O)=O`, which GI50 is on record?
The GI50 was > 100000 µM.

And the TGI?
Its TGI is > 100000 µM.

For `O=C(O)c1cc2cc(OCc3ccccc3)ccc2[nH]1`, which GI50 is on record?
Its GI50 is > 100 µM.

What about the TGI of the same compound?
The TGI was > 100 µM.

With `COc1ccc(C(=O)NCCNc2nccc(-c3c(-c4ccc(F)cc4)nc4sccn34)n2)cc1` as the compound, how does the GI50 read?
Its GI50 is 4.74 µM.

What about the TGI of the same compound?
The TGI was 41 µM.

With `Nc1c(C(=O)Nc2ccccc2)sc2nc3c(cc12)C(O)CCC3` (stereo unspecified) as the compound, how does the GI50 read?
The GI50 was 0.29 µM.

What about the TGI of the same compound?
Its TGI is > 100 µM.

`O=C(CCl)Nc1ccc2c(Nc3cc(O)ccc3Cl)ncnc2c1` was tested. Which GI50 did it give?
Its GI50 is 2.29 µM.

What about the TGI of the same compound?
Its TGI is 7.68 µM.

Which GI50 does the source give for `CCCCCC/C=C\CCCCCCCCCc1cc(O)cc(OC)c1O` here?
Its GI50 is 0.296 µM.

And the TGI?
Its TGI is 0.828 µM.

Which results are given for `Cc1ccncc1N1CCN(c2ccnc(Cl)c2)C1=O`?
GI50: > 100 µM; TGI: > 100 µM

How did the GI50 turn out when `CC(=O)Nc1nc(C)c(-c2csc(Nc3ccccc3)n2)s1` was run?
Its GI50 is 1.74 µM.

And the TGI?
The TGI was 9.01 µM.

With `COc1cnc2c(c1)C(=O)c1c-2n(CCCNCC2CC2)c(=O)c2cc(F)ccc12` as the compound, how does the GI50 read?
The GI50 was 0.316 µM.

And the TGI?
The TGI was 0.904 µM.

`Clc1ccc(CN2COc3c(ccc4cccnc34)C2)cc1Cl` was tested. Which GI50 did it give?
The GI50 was 0.543 µM.

And the TGI?
The TGI was 2.16 µM.

`O=C(CC1(O)C(=O)N(Cc2ccccc2)c2ccc(Br)cc21)c1ccc(C(=O)NCC2CCC3(CC2)OOC2(CCCCC2)OO3)cc1` (stereo unspecified) was tested. Which GI50 did it give?
The GI50 was 2.01 µM.

What about the TGI of the same compound?
Its TGI is 6.72 µM.

What does the source list for `CC1=C2[C@H]3OC(=O)[C@@H](C)[C@@H]3CC[C@@]2(C)C=CC1=O`?
GI50: > 100 µM; TGI: > 100 µM

With `Cn1ccnc1C(=O)/C=C/c1ccc(C(=O)Nc2ccccc2F)cc1` as the compound, how does the GI50 read?
The GI50 was 2.49 µM.

And the TGI?
The TGI was 8.3 µM.

`O=C(N/N=C\c1cc(Cl)ccc1O)c1ccncc1` was tested. Which GI50 did it give?
Its GI50 is 1.83 µM.

What about the TGI of the same compound?
Its TGI is 9.82 µM.

`N#Cc1c(-c2ccc(Cl)cc2)cc(-c2cc(O)ccc2O)nc1N` was tested. Which GI50 did it give?
The GI50 was 0.769 µM.

And the TGI?
Its TGI is 3.72 µM.

What does the source list for `O=C(Nc1ccc(-n2ccc3c(NC(=O)c4ccccc4)nccc32)cc1)c1cccc(C(F)(F)F)c1`?
GI50: 1.2 µM; TGI: 7.3 µM

With `COC(=O)N1c2ccc3c(nc(Cc4ccccc4)n3[C@H]3CCC[C@H](C(=O)O)C3)c2CC[C@@H]1C` as the compound, how does the GI50 read?
The GI50 was 3.82 µM.

What about the TGI of the same compound?
The TGI was > 100 µM.

For `CCCCCCCCNC(=O)c1ccc(Cn2c(CCCC)nc3c(N)nc4ccccc4c32)cc1`, which GI50 is on record?
The GI50 was 1.38 µM.

What about the TGI of the same compound?
Its TGI is 3.06 µM.

How did the GI50 turn out when `CCCCCCCCCCCCCCNc1nc(C(=O)OCC)ncc1-c1ccc(C(F)(F)F)cc1` was run?
Its GI50 is > 100 µM.

What about the TGI of the same compound?
The TGI was > 100 µM.
